Data: patent publication US20170368134A1, “PROTEASOME INHIBITORS FOR TREATING A DISORDER RELATED TO AN ACCUMULATION OF NON-DEGRADED ABNORMAL PROTEIN OR A CANCER” (UNIVERSITÉ D'AIX-MARSEILLE, priority 2015, published 2017)
Peptide text beside a SMILES is read from it. * marks the point of attachment. Cbz = O=C(OCc1ccccc1)*

Columns and labels:
lamin A = assay: Western blot of lamin A protein in HGPS fibroblasts; type: cell-based, human; settings: 48 h treatment with MG132 (10 μM)
Method: (§1) Total fibroblast proteins were extracted in 200 μL of NP40 Cell Lysis buffer (Invitrogen, Carlsbad, Calif.) containing Protease and Phosphatase Inhibitor Cocktail (Thermo Scientific). Alternatively, cells were lysed with urea (8 M urea, 5 mM dithiothreitol, 150 mM NaCl, 50 mM Tris-Cl pH 7.5, protease and phosphatase Inhibitor Cocktail (Thermo Scientific)). Cells were sonicated twice (30 sec each), incubated at 4° C. for 30 minutes and then centrifuged at 10,000 g for 10 minutes. Protein concentration was evaluated with the bicinchoninic acid technique (Pierce BCA Protein Assay Kit), absorbance at 562 nm is measured using nanodrop 1000 (Thermo Fisher Scientific Inc.) Equal amounts of proteins (40 μg) were loaded onto 10% Tis-Glycine gel (Criterion™ XT precast gel) using XT Tricine running Buffer (Biorad, USA). After electrophoresis, gels were electro transferred onto nitrocellulose membranes or Immobilon-FL polyvinylidene fluoride membranes (Millipore), blocked in Odyssey Blocking Buffer diluted 1:1 in PBS for 1 hour at room temperature, and incubated overnight at 4° C. or 2 hours at room temperature with various primary antibodies. […]

lamin A mRNA = assay: qRT-PCR of lamin A transcripts in HGPS cells; type: cell-based, human; settings: 10 μM MG132 time-course
Method: Total RNA was isolated using the RNeasy plus extraction kit (Qiagen, Valencia, Calif.). 1 μg of RNA was reverse transcribed using the High Capacity cDNA Reverse Transcription Kit (Applied Biosystems). Real time PCR amplification was carried out with the TaqMan® Gene Expression Master Mix (Applied Biosystems) on a LightCycler 480 (Roche, Germany) using pre-designed primers for GAPDH (Hs00266705_g1), Progerin (F: […] (SEQ ID NO:3) R: […] (SEQ ID NO:4) and probe: […] (SEQ ID NO:5)), Lamin A (F: […] (SEQ ID NO:6) R: […] (SEQ ID NO:7) and probe: […] (SEQ ID NO:8)) and lamin C (F: […] (SEQ ID NO:9) R: […] (SEQ ID NO:10) and probe: […] (SEQ ID NO:11)) (Applied Biosystems) using the program: UNG incubation at 50° C. for 2 minutes, initial denaturation at 95° C. for 10 minutes, 40 cycles of amplification: denaturation at 95° C. for 15 seconds and annealing at 60° C. for 1 minute. All PCR reactions were performed in triplicate. Threshold cycle (Ct) values were used to calculate relative mRNA expression by the 2-ΔΔ^T relative quantification method with normalization to GAPDH expression.

progerin = assay: Intramuscular MG132 in Lmna G609G/G609G mice, progerin in gastrocnemius muscle; type: in vivo, mouse
Method: (A) Lamin A, progerin, lamin C and SRSF-1 specific bands, corresponding to DMSO-treated left muscle (−) and 1 μg/Kg MG132-treated right muscle (+), were quantified by ImageJ software and their expression levels were normalized to GAPDH values.
(§2) Knock-in mouse model (Lmna^G609G/G609G) carrying the c.1827C>T (p.Gly609Gly) mutation in the endogenous Lmna gene, corresponding to the human HGPS mutation c.1824C>T (p.Gly609Gly) have been described previously (31). MG132 (1 or 10 μg/Kg body weight) was injected under isoflurane anesthesia into the right gastrocnemius muscle of […] homozygous knock-in mice (Lmna^G609G/G609G) 3 times per week for 2 weeks. Contralateral muscle served as control (DMSO). MG132 was dissolved in dimethyl sulfoxide (DMSO) and then diluted in 100 μl sterile phosphate-buffered saline (PBS) for intramuscular injection. […] Animal experiments have been carried out in compliance with the European guidelines for the care and use of laboratory animals (EU directive 2010/63/EU) and in accordance with the recommendations provided by the guide for the care and use of the laboratory animals of the French national Institute for Health and Medical Research (INSERM) and the ethical committee of Aix-Marseille University.

LC3B-II = assay: Western blot of LC3B-II (autophagy level) in HGPS fibroblasts; type: cell-based, human; settings: HGPS fibroblasts following MG132 treatment
Method: as §1

SRSF-1 = SRSF-1 levels in HGPS fibroblasts, iPS-MSC and iPS-VSMC; type: cell-based, human; settings: data not shown
Method: Generation of induced pluripotent stem cells (iPS) by reprogramming was carried out using fibroblasts isolated from HGPS patient biopsies performed in the Assistance Publique Hopitaux de Marseille (13-8243) or provided by Coriell Institute (Camden, USA) (AG01972). Cell lines were reprogrammed to iPSC using Yamanaka's original method based on retrovirus-mediated transfection of four transcription factors, namely Oct3/4, Sox2, c-Myc, and Klf4 (41). The iPSC lines were amplified up to the 15th passage before differentiation.
HGPS iPSC were grown on STO mouse fibroblasts, inactivated with […] mitomycin C, seeded at 30,000/cm2 and grown as previously described (42). For differentiation, iPSC were differentiated into mesenchymal stem cells (MSC-iPSC) using directed protocols for differentiation previously published (43-45). VSMC were obtained from iPSC by fluorescent-activated cell sorting (FACS) separation of CD31+ cells (46).

[1] = Tolerability of intramuscular MG132 in Lmna G609G/G609G mice; type: in vivo, mouse; settings: 1 or 10 μg/Kg intramuscular
Method: as §2

[2] = tested on: Act88F-PABPN1-17ala-expressing flies; assay: Wing posture defects in Drosophila OPMD model; type: in vivo; settings: oral in food, from larval stages, Day 3 to Day 11 of adulthood, vs DMSO alone
Method: Drug supplemented food was prepared as follows. Instant Drosophila medium (Carolina Biological Supply Company) was reconstituted in each vial with a solution of 1% yeast in water, supplemented with either increasing concentrations of drug solubilized in DMSO (dimethyl sulfoxide), or DMSO alone. MG132 was purchased from Santa Cruz Biotechnology (SC-201270). Each vial contained 5 ml or 2.5 ml of reconstituted medium, to raise larvae or adults, respectively. Individuals were fed with the drug from larval stages. 70 to 80 first instar larvae were transferred per vial and developed in the same vial up to adulthood; adults were transferred in a new vial with the same concentration of drug. […] Abnormal wing posture was quantified by collecting adult males at birth, pooling five males per vial and scoring abnormal wing position each day by direct observation of the flies through the vials, without anesthesia.
The inventors used the Drosophila model in which PABPN1-17ala is expressed constitutively in adult indirect flight muscles from the Act88F-PABPN1-17ala transgene (90), to assay the effect of MG132 in vivo. […] Wing posture defects were recorded from Day 3 to Day 11 of adulthood. The effect of MG132 was quantified by recording the number of Act88F-PABPN1-17ala-expressing flies with abnormal wing posture.

In the case of `CC(C)C[C@@H](C=O)NC(=O)[C@H](CC(C)C)NC(=O)[C@H](CC(C)C)NC(=O)OCc1ccccc1` [MG132, Z-Leu-Leu-Leu-al] (Cbz-Leu-Leu-Leu-aldehyde), the “lamin A protein levels” value (lamin A) is reported as “increased”, the “lamin A transcript levels” value (lamin A mRNA) is reported as “significant decrease of lamin A transcripts” and the “progerin level in treated muscle” value (progerin; 1 μg/Kg intramuscular, 3 times per week for 2 weeks, vs contralateral muscle) is reported as “significant decrease of progerin level”. The “progerin level in treated muscle” value (progerin; 10 μg/kg body weight intramuscular) was “significant decrease of progerin levels”, the LC3B-II levels (LC3B-II) was “increased” and the SRSF-1 levels (SRSF-1) was “decreased”. For the same compound, the “apparent damage or stress responses” value [1] was “Neither vehicle alone nor MG132 treatment produced any apparent damage or stress responses” and the “number of flies with abnormal wing posture” value [2] was “significant decrease in the number of flies with abnormal wing posture”.
